Values quoted from earlier work, collected in patent US9895393B2, “Topical formulations for increasing the dermal concentration of hyaluronic acid” (SHAMROC, INC., priority 2012, dated 2018).
Peptide text beside a SMILES is read from it. * marks the point of attachment. Palmitoyl = CCCCCCCCCCCCCCCC(=O)*

What was measured:
skin = conditions: Studies have shown

SMILES | collagen synthesis (human fibroblasts) | collagen production (skin) | melanogenesis (the production of pigment) (skin) | anti-oxidant activity (lipid peroxidation)
CCCCCCCCCCCCCCCC(=O)N[C@@H](CCCCN)C(=O)N[C@H](C(=O)N[C@@H](CCCCN)C(=O)O)C(C)C.O=C(O)C(F)(F)F.O=C(O)C(F)(F)F [palmitoyl-lysyl-valyl-lysine bistrifluoroacetate] (Palmitoyl-Lys-Val-Lys-OH) | stimulates collagen synthesis |  |  | 
CCCCCCCCC(CCCCCC)C(=O)OC[C@H](OC(=O)C(CCCCCC)CCCCCCCC)[C@H]1OC(=O)C(OC(=O)C(CCCCCC)CCCCCCCC)=C1OC(=O)C(CCCCCC)CCCCCCCC (stereo partly shown) [tetrahexyldecyl ascorbate] |  | stimulate collagen production | inhibiting melanogenesis | inhibiting lipid peroxidation
